Reference: patent publication US9085555B2, “Complement pathway modulators and uses thereof” (priority 2011, dated 2015)
Structures can show the parent of a compound that is named as a salt.

Each molecule was assayed against Factor D (Homo sapiens (Human), UniProt P00746) (assay: biochemical). Settings: not given.
Type: biochemical

Chain of Factor D (P00746 26-253): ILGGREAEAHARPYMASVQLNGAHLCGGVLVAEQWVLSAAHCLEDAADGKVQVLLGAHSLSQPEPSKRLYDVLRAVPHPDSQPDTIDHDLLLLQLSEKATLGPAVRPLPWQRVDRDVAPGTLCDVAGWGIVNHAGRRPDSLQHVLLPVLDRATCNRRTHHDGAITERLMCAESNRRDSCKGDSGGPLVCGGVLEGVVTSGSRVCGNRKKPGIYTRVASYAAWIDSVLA

**Q.** `[2H]C([2H])([2H])C(=O)c1cn(CC(=O)N2C[C@H](F)[C@@H](OC)[C@H]2C(=O)NCc2cccc(Cl)c2F)c2ccccc12` [Example 619, (2S,3S,4S)-1-[2-(3-Acetyl-d3-indol-1-yl)-acetyl]-4-fluoro-3-methoxy-pyrrolidine-2-carboxylic acid 3-chloro-2-fluoro-benzylamide] was tested. Which IC50 did it give?
**A.** 14 nM

**Q.** Which IC50 does the source give for `[2H]C([2H])([2H])O[C@H]1[C@@H](C(=O)NCc2cccc(Cl)c2F)N(C(=O)Cn2cc(C(C)=O)c3ccccc32)C[C@@H]1F` [Example 620, (2S,3S,4S)-1-[2-(3-Acetyl-indol-1-yl)-acetyl]-4-fluoro-3-methoxy-d3-pyrrolidine-2-carboxylic acid 3-chloro-2-fluoro-benzylamide] here?
**A.** 17 nM

Same assay, conditions: read-out: IC50

**Q.** How did the IC50 turn out when `CC(=O)c1cn(CC(=O)N2C[C@H](F)C[C@H]2C(=O)NCc2cccc(Cl)c2F)c2cc(CO)ccc12` [Example 604, (2S,4R)-1-[2-(3-Acetyl-6-hydroxymethyl-indol-1-yl)-acetyl]-4-fluoro-pyrrolidine-2-carboxylic acid 3-chloro-2-fluoro-benzylamide] was run?
**A.** 37 nM

**Q.** How did the IC50 turn out when `CC(=O)c1cn(CC(=O)N2C[C@H](F)C[C@H]2C(=O)NCc2cc(C(=O)O)cc(Cl)c2F)c2ccccc12` [Example 605, 3-[({(2S,4R)-1-[2-(3-Acetyl-indol-1-yl)-acetyl]-4-fluoro-pyrrolidine-2-carbonyl}-amino)-methyl]-5-chloro-4-fluoro-benzoic acid] was run?
**A.** 54 nM

**Q.** For `CC(=O)c1cn(CC(=O)N2[C@@H]3C[C@@H]3C[C@H]2C(=O)NCc2cc(C(=O)O)cc(Cl)c2F)c2ccccc12` [Example 606, 3-[({(1R,3S,5R)-2-[2-(3-Acetyl-indol-1-yl)-acetyl]-2-aza-bicyclo[3.1.0]hexane-3-carbonyl}-amino)-methyl]-5-chloro-4-fluoro-benzoic acid], which IC50 is on record?
**A.** 14 nM

**Q.** `CC(=O)c1cn(CC(=O)N2C[C@@](F)(CN)C[C@H]2C(=O)NCc2cccc(Cl)c2F)c2ccccc12` [Example 607, (2S,4S)-1-[2-(3-Acetyl-indol-1-yl)-acetyl]-4-aminomethyl-4-fluoro-pyrrolidine-2-carboxylic acid 3-chloro-2-fluoro-benzylamide] was tested. Which IC50 did it give?
**A.** 28 nM

**Q.** With `CN[C@H]1C[C@@H](C(=O)NCc2cccc(Cl)c2F)N(C(=O)Cn2cc(C(C)=O)c3ccccc32)C1` [Example 608, (2S,4S)-1-[2-(3-Acetyl-indol-1-yl)-acetyl]-4-methylamino-pyrrolidine-2-carboxylic acid 3-chloro-2-fluoro-benzylamide] as the molecule, how does the IC50 read?
**A.** 1840 nM

**Q.** `COCCN[C@H]1C[C@@H](C(=O)NCc2cccc(Cl)c2F)N(C(=O)Cn2cc(C(C)=O)c3ccccc32)C1` [Example 609, (2S,4S)-1-[2-(3-Acetyl-indol-1-yl)-acetyl]-4-(2-methoxy-ethylamino)-pyrrolidine-2-carboxylic acid 3-chloro-2-fluoro-benzylamide] was tested. Which IC50 did it give?
**A.** 1560 nM

**Q.** With `CC(=O)c1cn(CC(=O)N2[C@H](C(=O)NCc3cccc(Cl)c3F)C[C@@]3(CO)C[C@@H]23)c2ccccc12` [Example 611, (1R,3S,5S)-2-[2-(3-Acetyl-indol-1-yl)-acetyl]-5-hydroxymethyl-2-aza-bicyclo[3.1.0]hexane-3-carboxylic acid 3-chloro-2-fluoro-benzylamide] as the molecule, how does the IC50 read?
**A.** 141 nM

**Q.** How did the IC50 turn out when `CC(=O)c1cn(CC(=O)N2C[C@@H]3C[C@@H]3[C@H]2C(=O)N[C@H](CO)c2cccc(Cl)c2F)c2ccccc12` [Example 612, (1S,2S,5R)-3-[2-(3-Acetyl-indol-1-yl)-acetyl]-3-aza-bicyclo[3.1.0]hexane-2-carboxylic acid [(S)-1-(3-chloro-2-fluoro-phenyl)-2hydroxy-ethyl]-amide] was run?
**A.** 3430 nM

**Q.** With `CC(=O)c1cn(CC(=O)N2[C@@H]3C[C@@H]3C[C@H]2C(=O)N[C@H](CO)c2cccc(Cl)c2F)c2ncccc12` [Example 613, (1R,3S,5R)-2-[2-(3-Acetyl-pyrrolo[2,3-b]pyridin-1-yl)-acetyl]-2-aza-bicyclo[3.1.0]hexane-3-carboxylic acid [(S)-1-(3-chloro-2-fluoro-phenyl)-2-hydroxy-ethyl]-amide] as the molecule, how does the IC50 read?
**A.** 215 nM

**Q.** `CC(=O)c1cn(CC(=O)N2C[C@](C)(F)C[C@H]2C(=O)N[C@H](CO)c2cccc(Cl)c2F)c2ncccc12` [Example 614, (2S,4R)-1-[2-(3-Acetyl-pyrrolo[2,3-b]pyridin-1-yl)-acetyl]-4-fluoro-4-methyl-pyrrolidine-2-carboxylic acid [(S)-1-(3-chloro-2-fluoro-phenyl)-2-hydroxy-ethyl]-amide] was tested. Which IC50 did it give?
**A.** 245 nM

**Q.** For `CC(=O)c1cn(CC(=O)N2[C@@H]3C[C@@H]3C[C@H]2C(=O)NCc2cccc(Cl)c2F)c2ccc(C(=N)N(C)C)cc12` [Example 615, (1R,3S,5R)-2-{2-[3-Acetyl-5-(N,N-dimethyl-carbamimidoyl)-indol-1-yl]-acetyl}-2-aza-bicyclo[3.1.0]hexane-3-carboxylic acid 3-chloro-2-fluoro-benzylamide], which IC50 is on record?
**A.** 42 nM

**Q.** Which IC50 does the source give for `CC(=O)c1cn(CC(=O)N2[C@@H]3C[C@@H]3C[C@H]2C(=O)NCc2cccc(Cl)c2F)c2cc(C(=N)N(C)C)ccc12` [Example 616, (1R,3S,5R)-2-{2-[3-Acetyl-6-(N,N-dimethyl-carbamimidoyl)-indol-1-yl]-acetyl}-2-aza-bicyclo[3.1.0]hexane-3-carboxylic acid 3-chloro-2-fluoro-benzylamide] here?
**A.** 123 nM

**Q.** For `CC(=O)c1cn(CC(=O)N2C[C@H](F)C[C@H]2C(=O)NCc2cccc(Cl)c2F)c2cc(-c3nnn[nH]3)ccc12` [Example 617, (2S,4R)-1-{2-[3-Acetyl-6-(1H-tetrazol-5-yl)-indol-1-yl]-acetyl}-4-fluoro-pyrrolidine-2-carboxylic acid 3-chloro-2-fluoro-benzylamide], which IC50 is on record?
**A.** 28 nM

**Q.** How did the IC50 turn out when `CC(=O)c1cn(CC(=O)N2[C@@H]3C[C@@H]3C[C@H]2C(=O)NCc2cccc(Cl)c2F)c2cc(-c3nnn[nH]3)ccc12` [Example 618, (1R,3S,5R)-2-{2-[3-Acetyl-6-(1H-tetrazol-5-yl)-indol-1-yl]-acetyl}-2-aza-bicyclo[3.1.0]hexane-3-carboxylic acid 3-chloro-2-fluoro-benzylamide] was run?
**A.** 39 nM

**Q.** How did the IC50 turn out when `CC(=O)c1nc(CC(=O)N2[C@@H]3C[C@@H]3C[C@H]2C(=O)NCc2cccc(Cl)c2F)n2ccccc12` [Example 621, (1R,3S,5R)-2-[2-(1-Acetyl-imidazo[1,5-a]pyridin-3-yl)-acetyl]-2-aza-bicyclo[3.1.0]hexane-3-carboxylic acid 3-chloro-2-fluoro-benzylamide] was run?
**A.** 19 nM

**Q.** `CC(=O)c1cn(CC(=O)N2[C@H](CNC(=O)Oc3cccc(Cl)c3F)C[C@H]3C[C@H]32)c2ccccc12` [Example 622, {(1R,3S,5R)-2-[2-(3-Acetyl-indol-1-yl)-acetyl]-2-aza-bicyclo[3.1.0]hex-3-ylmethyl}-carbamic acid 3-chloro-2-fluoro-phenyl ester] was tested. Which IC50 did it give?
**A.** 5600 nM

**Q.** For `CC(=O)c1nn(CC(=O)N2C[C@H](F)C[C@H]2C(=O)NCc2cccc(Cl)c2F)c2cnccc12` [Example 623, (2S,4R)-1-[2-(3-Acetyl-pyrazolo[3,4-c]pyridin-1-yl)-acetyl]-4-fluoro-pyrrolidine-2-carboxylic acid 3-chloro-2-fluoro-benzylamide formate], which IC50 is on record?
**A.** 24 nM

**Q.** Which IC50 does the source give for `CO[C@H]1[C@@H](C(=O)N[C@H](C)c2cccc(Cl)c2F)N(C(=O)Cn2nc(C(C)=O)c3cccnc32)C[C@@H]1F` [Example 624, (2S,3S,4S)-1-[2-(3-Acetyl-pyrazolo[3,4-b]pyridin-1-yl)-acetyl]-4-fluoro-3-methoxy-pyrrolidine-2-carboxylic acid [(R)-1-(3-chloro-2-fluoro-phenyl)-ethyl]-amide] here?
**A.** 26 nM

**Q.** How did the IC50 turn out when `CC(=O)c1nn(CC(=O)N2C[C@@H]3C[C@@H]3[C@H]2C(=O)NCc2cccc(Cl)c2F)c2cnc(C)cc12` [Example 625, (1S,2S,5R)-3-[2-(3-Acetyl-5-methyl-pyrazolo[3,4-c]pyridin-1-yl)-acetyl]-3-aza-bicyclo [3.1.0]hexane-2-carboxylic acid 3-chloro-2-fluoro-benzylamide] was run?
**A.** 19 nM

**Q.** How did the IC50 turn out when `CC(=O)c1nn(CC(=O)N2C[C@H](F)C[C@H]2C(=O)NCc2cccc(Cl)c2F)c2cnc(C)cc12` [Example 626, (2S,4R)-1-[2-(3-Acetyl-5-methyl-pyrazolo[3,4-c]pyridin-1-yl)-acetyl]-4-fluoro-pyrrolidine-2-carboxylic acid 3-chloro-2-fluoro-benzylamide] was run?
**A.** 36 nM

**Q.** How did the IC50 turn out when `CC(=O)c1nn(CC(=O)N2[C@@H]3C[C@@H]3C[C@H]2C(=O)NCc2cccc(Cl)c2F)c2cnccc12` [Example 627, (1R,3S,5R)-2-[2-(3-Acetyl-pyrazolo[3,4-c]pyridin-1-yl)-acetyl]-2-aza-bicyclo [3.1.0]hexane-3-carboxylic acid 3-chloro-2-fluoro-benzylamide] was run?
**A.** 16 nM

**Q.** How did the IC50 turn out when `CO[C@H]1[C@@H](C(=O)Nc2cccc(OC(F)(F)F)c2F)N(C(=O)Cn2nc(C(N)=O)c3ccccc32)C[C@@H]1F` [Example 628, 1-{2-[(2S,3S,4S)-4-Fluoro-2-(2-fluoro-3-trifluoromethoxy-phenylcarbamoyl)-3-methoxy-pyrrolidin-1-yl]-2-oxo-ethyl}-1H-indazole-3-carboxylic acid amide] was run?
**A.** 38 nM

**Q.** For `CO[C@H]1[C@@H](C(=O)Nc2cccc(OC(F)(F)F)c2F)N(C(=O)Cn2nc(C(N)=O)c3ccncc32)C[C@@H]1F` [Example 629, 1-{2-[(2S,3S,4S)-4-Fluoro-2-(2-fluoro-3-trifluoromethoxy-phenylcarbamoyl)-3-methoxy-pyrrolidin-1-yl]-2-oxo-ethyl}-1H-pyrazolo[3,4-c]pyridine-3-carboxylic acid amide trifluoroacetate], which IC50 is on record?
**A.** 17 nM

**Q.** Which IC50 does the source give for `CO[C@H]1[C@@H](C(=O)NCc2cccc(Cl)c2F)N(C(=O)Cn2nc(C(C)=O)c3cnccc32)C[C@@H]1F` [Example 630, (2S,3S,4S)-1-[2-(3-Acetyl-pyrazolo[4,3-c]pyridin-1-yl)-acetyl]-4-fluoro-3-methoxy-pyrrolidine-2-carboxylic acid 3-chloro-2-fluoro-benzylamide] here?
**A.** 36 nM

**Q.** With `CO[C@H]1[C@@H](C(=O)NC2(c3cccc(Cl)c3F)CC2)N(C(=O)Cn2nc(C(C)=O)c3ccncc32)C[C@@H]1F` [Example 631, (2S,3S,4S)-1-[2-(3-Acetyl-pyrazolo[3,4-c]pyridin-1-yl)-acetyl]-4-fluoro-3-methoxy-pyrrolidine-2-carboxylic acid [1-(3-chloro-2-fluoro-phenyl)-cyclopropyl]-amide] as the molecule, how does the IC50 read?
**A.** 11 nM
